Results: ChEMBL document CHEMBL1158086, “Phenolic marine natural products as aldose reductase inhibitors” (J Nat Prod, 2006)

Experiment: Inhibition of human recombinant ALR2

Structure (SMILES)	IC50
O=C1O/C(=C\c2cc(Br)c(O)c(Br)c2)C(c2ccc(O)cc2)=C1Cl	0.8 µM
O=C1O/C(=C\c2cc(Br)c(O)c(Br)c2)C(c2ccc(O)c(Br)c2)=C1Cl	12.7 µM
O=C1C=C(c2ccc(O)cc2)/C(=C/c2cc(Br)c(O)c(Br)c2)O1	> 57 µM
O=C1O/C(=C\c2ccc(O)c(Br)c2)C(c2ccc(O)c(Br)c2)=C1Cl	16.9 µM
O=C1O/C(=C\c2cc(Br)c(O)c(Br)c2)C(c2cc(Br)c(O)c(Br)c2)=C1Cl	18.7 µM
O=C1C=C(c2cc(Br)c(O)c(Br)c2)/C(=C/c2cc(Br)c(O)c(Br)c2)O1 [RUBROLIDE A]	19.8 µM
O=C1C=C(c2ccc(O)c(Br)c2)/C(=C/c2cc(Br)c(O)c(Br)c2)O1 [RUBROLIDE J]	48.1 µM
O=C1NC(=O)[C@@]2(CCOc3ccc(F)cc32)N1 [SORBINIL]	3.6 µM

The remaining lines, values ahead:

IC50	Structure (SMILES)
41.4 µM	O=C(c1ccc(O)cc1)c1cncc(-c2ccc(O)cc2)n1
46.2 µM	O=C1O/C(=C\c2ccc(O)c(Br)c2)C(c2ccc(O)cc2)=C1Cl
21.4 µM	O=C(c1ccc(O)cc1)c1nc(-c2ccc(O)cc2)c[nH]1
19.4 µM	O=C(c1ccc(O)cc1)c1ncc(-c2ccc(O)cc2)nc1C(=O)c1ccc(O)cc1
0.6 µM	O=c1oc(-c2ccc(O)cc2)cn2cc(-c3ccc(O)c(I)c3)c(-c3ccc(O)cc3)c12 [LUKIANOL B]
